Laboratory results as given in patent US20240042046A1, “METHODS AND COMPOUNDS FOR MODULATING HUNTINGTON'S DISEASE” (Design Therapeutics, Inc., priority 2022, published 2024).
pIC50: −log10 of the molar value.

What was measured:
[1] = test system: human HTT mRNA, SNP rs362331 C allele, GM09197 fibroblasts; test: Screening of HD molecules in GM09197 fibroblasts, allele-specific HTT mRNA by RT-PCR, C allele; format: cell-based; details: for GM 09197 E min 48 Hr C Allele (%): Emin = lowest % HTT observed within compound concentration 0.5 nM to 1000 nM; for pIC50: Homo sapiens, Fibroblast, 48-hour incubation, C allele HTT mRNA normalized to GAPDH, relative to vehicle
Experimental: (§1) Molecular Biology Toolkit: • qPCR primer probe sets: • RNA input normalization was assessed utilizing human glyceraldehyde 3-phosphate dehydrogenase (hGAPDH) TaqMan assay (ThermoFisher cat #4351370) or Human Cyclophillin ([…]) TaqMan assay (ThermoFisher cat #4351372) • Total HTT detection was assessed utilizing human Htt TaqMan assay (ThermoFisher cat #4331182) • Allele-specific detection of human HTT expression in HD cells containing the SNP rs362331C/T (Exon 50): for each assay, allele-specific probes to detect the SNP variant contained locked nucleic acid bases to improve allele discrimination, as compared to unmodified DNA probes.
(§2) • qPCR was performed using Agpath ID one-step reverse transcriptase polymerase chain reaction (RT-PCR) reagent
(§3) Screening of HD molecules methods: GM09197 and/or GM04022 fibroblasts were cultured in T175 flasks incubated at 37° C. and 5% CO2. Once confluency was reached, the media was removed, the cells were washed with 1×PBS, and cells were dissociated using TrypLE™ Express Enzyme. Media was added to the enzyme and collected into a 15-mL conical tube and centrifuged at 500×g for 5 minutes to pellet the cells. Media and enzyme were aspirated using a serological pipette. Cells were resuspended in fresh media and counted using a Countess 3 Automated Cell Counter. Cells were plated at a density of 15,000 cells/well in a tissue culture-treated polystyrene 96-well dish and incubated at 37° C. and 5% CO2 overnight. The next day, media was removed using an 8-channel aspirator. 200 μL media/well are added back into the plate. The molecules are formulated to 1 mM and are dispensed using a Multidrop™ Pico 8 Digital Dispenser. After a 48-hour incubation with compounds, media was removed from plates, cells were washed with 1×PBS, and cells were lysed in 40 μL per well guanidinium thiocyanate buffer. RNA was isolated and purified in […] glass fiber column plates using chaotropic salts. Human mtHTT, wtHTT, and GAPDH mRNA were measured via RT-PCR using the ThermoFisher QuantStudio™ 7 Flex System in 384-well format. Results of HTT levels were normalized to GAPDH mRNA levels. Normalized HTT mRNA levels were expressed relative to vehicle-treated samples to assess fold change after molecule treatment.
(§4) Emin for each compound is the lowest % HTT concentration observed within a compound concentration of 0.5 nM to 1000 nM.

[2] = test system: human HTT mRNA, SNP rs362331 T allele, GM09197 fibroblasts; test: Screening of HD molecules in GM09197 fibroblasts, allele-specific HTT mRNA by RT-PCR, T allele; format: cell-based; details: for Gm09197 Emin 48 hr T Allele (%): Emin = lowest % HTT observed within compound concentration 0.5 nM to 1000 nM; for pIC50: Homo sapiens, Fibroblast, 48-hour incubation, T allele HTT mRNA normalized to GAPDH, relative to vehicle
Experimental: as §1, §2, §3, §4

Compound	GM 09197 E min 48 Hr C Allele (%) [1]	Gm09197 Emin 48 hr T Allele (%) [2]	pIC50 [2]	pIC50 [1]
Cc1sc2c(c1C)C(c1ccc(Cl)cc1)=N[C@@H](CC(=O)Nc1ccc(OCCOCCOCCOCCOCCOCCOCCOCCOCCNC(=O)CCNC(=O)c3nc(NC(=O)c4cc(NC(=O)CCNC(=O)c5nc(NC(=O)CCCNC(=O)c6cc(NC(=O)c7nc(NC(=O)CCNC(=O)c8cc(NC(=O)c9nccn9C)cn8C)cn7C)cn6C)cn5C)cn4C)cn3C)cc1)c1nnc(C)n1-2 [Compound A-1]	A (A>90%)	C (C<80%)	6.94	–
Cc1cc(F)cc(C)c1Oc1ccc(C(C)(C)O)cc1-c1cn(C)c(=O)c2[nH]c(C(=O)Nc3ccc(OCCOCCOCCOCCOCCOCCOCCOCCOCCNC(=O)CCNC(=O)c4nc(NC(=O)c5cc(NC(=O)CCNC(=O)c6nc(NC(=O)CCCNC(=O)c7cc(NC(=O)c8nc(NC(=O)CCNC(=O)c9cc(NC(=O)c%10nccn%10C)cn9C)cn8C)cn7C)cn6C)cn5C)cn4C)cc3)cc12 [Compound A-7]	A (A>90%)	A (A>90%)	< 6.00	–
CCS(=O)(=O)Nc1ccc(Oc2ccc(F)cc2F)c(-c2cn(C)c(=O)c3[nH]c(C(=O)Nc4ccc(OCCOCCOCCOCCOCCOCCOCCOCCOCCNC(=O)c5cc(NC(=O)c6nc(NC(=O)[C@H](N)CCNC(=O)c7cc(NC(=O)c8nc(NC(=O)CCNC(=O)c9cc(NC(=O)c%10nccn%10C)cn9C)cn8C)cn7C)cn6C)cn5C)cc4)cc23)c1 [Compound A-21]	A (A>90%)	A (A>90%)	–	–
CC(=O)Nc1c(F)cc(C(=O)NC2CCC(O)CC2)cc1O[C@@H](C)c1cccc(OCCOCCOCCOCCOCCOCCOCCOCCOCCOCCOCCOCCOCCOCCOCCOCCNC(=O)CCNC(=O)c2nc(NC(=O)c3cc(NC(=O)CCNC(=O)c4nc(NC(=O)CCCNC(=O)c5cc(NC(=O)c6nc(NC(=O)CCNC(=O)c7cc(NC(=O)c8nccn8C)cn7C)cn6C)cn5C)cn4C)cn3C)cn2C)c1 (stereo partly shown) [Compound A-31]	B (B is 90% to 80%)	B (B is 90% to 80%)	–	–
CC(=O)Nc1c(F)cc(C(=O)N[C@H]2CC[C@H](O)CC2)cc1O[C@@H](C)c1cccc(C(=O)NCCOCCOCCOCCOCCOCCOCCOCCOCCOCCOCCOCCOCCOCCOCCOCCNC(=O)CCNC(=O)c2nc(NC(=O)c3cc(NC(=O)CCNC(=O)c4nc(NC(=O)CCCNC(=O)c5cc(NC(=O)c6nc(NC(=O)CCNC(=O)c7cc(NC(=O)c8nccn8C)cn7C)cn6C)cn5C)cn4C)cn3C)cn2C)c1 [Compound A-32]	B (B is 90% to 80%)	B (B is 90% to 80%)	–	–
Cc1sc2c(c1C)C(c1ccc(Cl)cc1)=N[C@@H](CC(=O)Nc1ccc(OCCOCCOCCOCCOCCOCCOCCOCCOCCNC(=O)c3cc(NC(=O)c4nc(NC(=O)[C@H](N)CCNC(=O)c5cc(NC(=O)c6nc(NC(=O)CCNC(=O)c7cc(NC(=O)c8nccn8C)cn7C)cn6C)cn5C)cn4C)cn3C)cc1)c1nnc(C)n1-2 [Compound A-35]	A (A>90%)	B (B is 90% to 80%)	–	–
CCS(=O)(=O)Nc1ccc(Oc2ccc(F)cc2F)c(-c2cn(C)c(=O)c3[nH]c(C(=O)Nc4ccc(OCCOCCOCCOCCOCCOCCOCCOCCOCCOCCOCCOCCOCCOCCOCCOCCNC(=O)c5cc(NC(=O)c6nc(NC(=O)[C@H](N)CCNC(=O)c7cc(NC(=O)c8nc(NC(=O)CCNC(=O)c9cc(NC(=O)c%10nccn%10C)cn9C)cn8C)cn7C)cn6C)cn5C)cc4)cc23)c1 [Compound A-36]	A (A>90%)	A (A>90%)	–	–
Cc1sc2c(c1C)C(c1ccc(Cl)cc1)=N[C@@H](CC(=O)Nc1ccc(OCCOCCOCCOCCOCCOCCOCCOCCOCCNC(=O)c3cc(NC(=O)c4nc(NC(=O)c5cc(NC(=O)[C@@H](N)CCNC(=O)c6nc(NC(=O)CCNC(=O)c7cc(NC(=O)c8nccn8C)cn7C)cn6C)cn5C)cn4C)cn3C)cc1)c1nnc(C)n1-2 [Compound A-37]	B (B is 90% to 80%)	B (B is 90% to 80%)	< 6.00	< 6.00
Cc1sc2c(c1C)C(c1ccc(Cl)cc1)=N[C@@H](CC(=O)Nc1ccc(OCCOCCOCCOCCOCCOCCOCCOCCOCCOCCOCCOCCOCCOCCOCCOCCNC(=O)c3cc(NC(=O)c4nc(NC(=O)c5cc(NC(=O)[C@@H](N)CCNC(=O)c6nc(NC(=O)CCNC(=O)c7cc(NC(=O)c8nccn8C)cn7C)cn6C)cn5C)cn4C)cn3C)cc1)c1nnc(C)n1-2 [Compound A-38]	A (A>90%)	A (A>90%)	–	–
CCS(=O)(=O)Nc1ccc(Oc2ccc(F)cc2F)c(-c2cn(C)c(=O)c3[nH]c(C(=O)Nc4ccc(OCCOCCOCCOCCOCCOCCOCCOCCOCCNC(=O)c5cc(NC(=O)c6nc(NC(=O)c7cc(NC(=O)[C@@H](N)CCNC(=O)c8nc(NC(=O)CCNC(=O)c9cc(NC(=O)c%10nccn%10C)cn9C)cn8C)cn7C)cn6C)cn5C)cc4)cc23)c1 [Compound A-39]	B (B is 90% to 80%)	B (B is 90% to 80%)	–	–
CCS(=O)(=O)Nc1ccc(Oc2ccc(F)cc2F)c(-c2cn(C)c(=O)c3[nH]c(C(=O)Nc4ccc(OCCOCCOCCOCCOCCOCCOCCOCCOCCOCCOCCOCCOCCOCCOCCOCCNC(=O)c5cc(NC(=O)c6nc(NC(=O)c7cc(NC(=O)[C@@H](N)CCNC(=O)c8nc(NC(=O)CCNC(=O)c9cc(NC(=O)c%10nccn%10C)cn9C)cn8C)cn7C)cn6C)cn5C)cc4)cc23)c1 [Compound A-40]	A (A>90%)	A (A>90%)	–	–
Cc1sc2c(c1C)C(c1ccc(Cl)cc1)=N[C@H](CC(=O)Nc1ccc(OCCOCCOCCOCCOCCOCCOCCOCCOCCOCCOCCOCCOCCOCCOCCOCCNC(=O)CCNC(=O)c3nc(NC(=O)c4cc(NC(=O)CCNC(=O)c5nc(NC(=O)CCCNC(=O)c6cc(NC(=O)c7nc(NC(=O)CCNC(=O)c8cc(NC(=O)c9nccn9C)cn8C)cn7C)cn6C)cn5C)cn4C)cn3C)cc1)c1nnc(C)n1-2 [Compound A-45]	C (C<80%)	C (C<80%)	–	–
Cn1cc(NC(=O)c2nc(NC(=O)CCNC(=O)c3cc(NC(=O)c4nccn4C)cn3C)cn2C)cc1C(=O)NCCCC(=O)Nc1cn(C)c(C(=O)NCCC(=O)Nc2cc(C(=O)Nc3cn(C)c(C(=O)NCCC(=O)NCCOCCOCCOCCOCCN4C[C@H](Nc5cnn(C)c(=O)c5Br)C[C@H](c5ccccc5)C4)n3)n(C)c2)n1 [Compound A-47]	C (C<80%)	C (C<80%)	< 6.00	< 6.00
Cn1cc(NC(=O)c2nc(NC(=O)CCNC(=O)c3cc(NC(=O)c4nccn4C)cn3C)cn2C)cc1C(=O)NCCCC(=O)Nc1cn(C)c(C(=O)NCCC(=O)Nc2cc(C(=O)Nc3cn(C)c(C(=O)NCCC(=O)NCCOCCOCCOCCOCCOCCOCCOCCOCCN4C[C@H](Nc5cnn(C)c(=O)c5Br)C[C@H](c5ccccc5)C4)n3)n(C)c2)n1 [Compound A-48]	A (A>90%)	A (A>90%)	–	–
Cn1cc(NC(=O)c2nc(NC(=O)CCNC(=O)c3cc(NC(=O)c4nccn4C)cn3C)cn2C)cc1C(=O)NCCCC(=O)Nc1cn(C)c(C(=O)NCCC(=O)Nc2cc(C(=O)Nc3cn(C)c(C(=O)NCCC(=O)NCCOCCOCCOCCOCCOCCOCCOCCOCCOCCOCCOCCOCCOCCOCCOCCN4C[C@H](Nc5cnn(C)c(=O)c5Br)C[C@H](c5ccccc5)C4)n3)n(C)c2)n1 [Compound A-49]	A (A>90%)	A (A>90%)	–	–
Cc1noc(C)c1-c1ccc2c(c1)nc(CCc1ccc(OCCOCCOCCOCCOCCNC(=O)CCNC(=O)c3nc(NC(=O)c4cc(NC(=O)CCNC(=O)c5nc(NC(=O)CCCNC(=O)c6cc(NC(=O)c7nc(NC(=O)CCNC(=O)c8cc(NC(=O)c9nccn9C)cn8C)cn7C)cn6C)cn5C)cn4C)cn3C)c(Cl)c1)n2C[C@H](C)N1CCOCC1 [Compound A-52]	C (C<80%)	B (B is 90% to 80%)	< 6.00	< 6.00
